Earlier results, collected in patent publication US7504230B2, “Method of identifying a useful set of signal transduction proteins from a multiplicity of potentially useful proteins” (Trelolis Bioscience, Inc., priority 1999, dated 2009).

Tests used:
PKC isoenzyme ε = molecular target: T1, PKC isoenzyme ε (Homo sapiens, UniProt Q02156); conditions: hDMEC, after stimulation with PMA; from periphery
T1 construct: endogenous in cells; host or cells: hDMEC (human dermal microvascular endothelial cells)
T1 sequence (Q02156 1-737): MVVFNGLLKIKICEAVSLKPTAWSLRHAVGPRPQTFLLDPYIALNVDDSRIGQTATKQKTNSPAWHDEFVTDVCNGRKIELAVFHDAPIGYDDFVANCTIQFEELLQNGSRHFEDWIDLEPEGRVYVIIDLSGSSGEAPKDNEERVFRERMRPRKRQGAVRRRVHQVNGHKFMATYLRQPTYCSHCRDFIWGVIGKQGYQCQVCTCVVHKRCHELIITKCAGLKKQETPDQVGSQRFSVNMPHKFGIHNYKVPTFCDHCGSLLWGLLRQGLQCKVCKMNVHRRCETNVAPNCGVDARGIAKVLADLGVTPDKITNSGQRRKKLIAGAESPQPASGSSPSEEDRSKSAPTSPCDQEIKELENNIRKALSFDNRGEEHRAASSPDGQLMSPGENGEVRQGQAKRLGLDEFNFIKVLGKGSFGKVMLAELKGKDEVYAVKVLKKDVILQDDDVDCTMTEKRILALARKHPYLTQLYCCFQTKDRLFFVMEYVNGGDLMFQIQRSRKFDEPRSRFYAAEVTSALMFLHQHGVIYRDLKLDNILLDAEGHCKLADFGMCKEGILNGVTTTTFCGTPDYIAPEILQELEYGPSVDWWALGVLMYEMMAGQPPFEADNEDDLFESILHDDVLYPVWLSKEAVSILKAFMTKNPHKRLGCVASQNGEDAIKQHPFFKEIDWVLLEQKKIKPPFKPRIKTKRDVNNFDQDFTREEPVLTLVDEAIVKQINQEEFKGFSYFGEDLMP

[1] = test system: fusion of the C1 region with green fluorescent protein (GFP); conditions: from a diffuse cytoplasmic localization
PKC isoenzyme β = molecular target: T2, PKC isoenzyme β (Homo sapiens, UniProt P05771); conditions: hDMEC, after stimulation with PMA; from cytosol (ditto mark)
T2 construct: endogenous in cells; host or cells: hDMEC (human dermal microvascular endothelial cells)

PKC isoenzyme α = molecular target: T3, PKC isoenzyme α (Homo sapiens, UniProt P17252); conditions: hDMEC, after stimulation with PMA; from cytosol
T3 construct: endogenous in cells; host or cells: hDMEC (human dermal microvascular endothelial cells)

PKC isoenzyme βII = molecular target: T4, PKC isoenzyme βII (Homo sapiens, UniProt P05771); conditions: hDMEC, after stimulation with PMA; from nucleus
T4 construct: endogenous in cells; host or cells: hDMEC (human dermal microvascular endothelial cells)

PKC isoenzyme η = molecular target: T5, PKC isoenzyme η (Homo sapiens, UniProt P24723); conditions: hDMEC, after stimulation with PMA; from nucleus
T5 construct: endogenous in cells; host or cells: hDMEC (human dermal microvascular endothelial cells)

PKC isoenzyme ζ = molecular target: T6, PKC isoenzyme ζ (Homo sapiens, UniProt Q05513); conditions: hDMEC, after stimulation with PMA; from fibrillar structures
T6 construct: endogenous in cells; host or cells: hDMEC (human dermal microvascular endothelial cells)
T6 sequence (Q05513 1-592): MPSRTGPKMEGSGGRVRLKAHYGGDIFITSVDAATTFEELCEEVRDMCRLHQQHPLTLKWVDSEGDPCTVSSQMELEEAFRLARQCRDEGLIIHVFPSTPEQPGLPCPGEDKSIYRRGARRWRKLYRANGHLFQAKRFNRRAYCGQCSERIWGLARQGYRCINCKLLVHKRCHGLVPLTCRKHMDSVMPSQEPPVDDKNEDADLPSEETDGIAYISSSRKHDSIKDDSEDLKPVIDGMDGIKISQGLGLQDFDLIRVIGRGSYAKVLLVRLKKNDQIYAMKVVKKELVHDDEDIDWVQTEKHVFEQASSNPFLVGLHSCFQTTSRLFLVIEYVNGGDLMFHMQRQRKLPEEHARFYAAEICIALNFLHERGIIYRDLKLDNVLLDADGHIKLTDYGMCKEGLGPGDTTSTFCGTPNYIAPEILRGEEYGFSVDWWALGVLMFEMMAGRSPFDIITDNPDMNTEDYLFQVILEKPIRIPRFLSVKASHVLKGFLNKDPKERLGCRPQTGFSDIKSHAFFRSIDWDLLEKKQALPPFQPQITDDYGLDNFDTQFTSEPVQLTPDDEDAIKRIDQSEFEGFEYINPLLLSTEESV

PKC isoenzyme δ = molecular target: T7, PKC isoenzyme δ (Homo sapiens, UniProt Q05655); conditions: hDMEC, after stimulation with PMA; from cytosol
T7 construct: endogenous in cells; host or cells: hDMEC (human dermal microvascular endothelial cells)
T7 sequence (Q05655 whole entry): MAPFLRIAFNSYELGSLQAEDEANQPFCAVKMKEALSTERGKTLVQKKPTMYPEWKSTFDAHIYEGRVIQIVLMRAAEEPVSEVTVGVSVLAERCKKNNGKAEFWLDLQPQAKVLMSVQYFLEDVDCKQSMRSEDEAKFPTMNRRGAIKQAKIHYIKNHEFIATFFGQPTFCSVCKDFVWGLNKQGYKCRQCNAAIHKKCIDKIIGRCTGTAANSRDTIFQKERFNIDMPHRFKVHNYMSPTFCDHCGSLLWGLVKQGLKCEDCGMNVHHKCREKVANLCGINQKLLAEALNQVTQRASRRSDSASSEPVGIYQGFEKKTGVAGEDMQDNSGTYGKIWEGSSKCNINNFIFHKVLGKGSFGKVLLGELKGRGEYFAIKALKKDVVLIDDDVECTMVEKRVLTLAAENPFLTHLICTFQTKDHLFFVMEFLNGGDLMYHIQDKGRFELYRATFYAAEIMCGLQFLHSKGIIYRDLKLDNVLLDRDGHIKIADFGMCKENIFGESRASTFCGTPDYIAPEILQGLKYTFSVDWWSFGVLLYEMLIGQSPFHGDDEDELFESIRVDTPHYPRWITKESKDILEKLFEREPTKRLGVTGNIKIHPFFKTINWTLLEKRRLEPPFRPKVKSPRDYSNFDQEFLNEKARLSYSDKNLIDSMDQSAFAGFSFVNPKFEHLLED

T2 sequence (P05771 whole entry): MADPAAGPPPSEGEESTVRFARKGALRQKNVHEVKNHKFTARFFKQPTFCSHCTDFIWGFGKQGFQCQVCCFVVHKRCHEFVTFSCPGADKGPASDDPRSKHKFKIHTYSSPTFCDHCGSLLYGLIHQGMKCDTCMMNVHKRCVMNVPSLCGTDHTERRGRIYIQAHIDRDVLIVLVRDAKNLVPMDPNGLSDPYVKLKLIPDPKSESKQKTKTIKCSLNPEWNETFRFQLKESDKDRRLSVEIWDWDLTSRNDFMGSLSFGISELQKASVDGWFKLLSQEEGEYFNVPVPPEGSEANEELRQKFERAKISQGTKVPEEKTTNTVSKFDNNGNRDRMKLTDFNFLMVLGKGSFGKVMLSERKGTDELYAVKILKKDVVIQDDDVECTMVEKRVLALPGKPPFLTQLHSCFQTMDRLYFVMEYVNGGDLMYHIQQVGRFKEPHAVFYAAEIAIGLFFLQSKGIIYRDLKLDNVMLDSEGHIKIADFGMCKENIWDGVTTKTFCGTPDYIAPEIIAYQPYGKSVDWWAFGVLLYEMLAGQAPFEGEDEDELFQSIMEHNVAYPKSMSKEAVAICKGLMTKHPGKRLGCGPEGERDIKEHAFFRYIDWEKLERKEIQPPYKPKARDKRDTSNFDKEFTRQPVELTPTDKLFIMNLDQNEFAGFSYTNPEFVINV
T5 sequence (P24723 whole entry): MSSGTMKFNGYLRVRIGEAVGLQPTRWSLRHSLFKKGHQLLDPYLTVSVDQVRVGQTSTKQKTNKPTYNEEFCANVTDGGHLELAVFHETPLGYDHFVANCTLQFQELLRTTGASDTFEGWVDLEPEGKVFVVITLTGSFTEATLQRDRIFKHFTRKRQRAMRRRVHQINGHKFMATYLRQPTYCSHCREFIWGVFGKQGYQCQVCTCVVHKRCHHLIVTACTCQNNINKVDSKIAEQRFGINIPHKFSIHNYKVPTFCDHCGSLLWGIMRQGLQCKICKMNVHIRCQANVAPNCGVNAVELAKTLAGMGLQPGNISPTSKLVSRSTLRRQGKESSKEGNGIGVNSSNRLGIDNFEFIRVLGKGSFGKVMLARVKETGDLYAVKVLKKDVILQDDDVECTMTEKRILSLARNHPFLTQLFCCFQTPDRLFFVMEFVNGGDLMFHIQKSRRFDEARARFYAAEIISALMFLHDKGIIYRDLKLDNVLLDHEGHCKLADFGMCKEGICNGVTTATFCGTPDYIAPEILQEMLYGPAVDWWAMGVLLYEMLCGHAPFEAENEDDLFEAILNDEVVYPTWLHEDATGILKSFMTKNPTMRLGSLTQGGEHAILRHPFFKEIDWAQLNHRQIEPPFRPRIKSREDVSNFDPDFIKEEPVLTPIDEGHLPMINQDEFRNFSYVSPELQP
T4 sequence (P05771 1-673 isoform P05771-2): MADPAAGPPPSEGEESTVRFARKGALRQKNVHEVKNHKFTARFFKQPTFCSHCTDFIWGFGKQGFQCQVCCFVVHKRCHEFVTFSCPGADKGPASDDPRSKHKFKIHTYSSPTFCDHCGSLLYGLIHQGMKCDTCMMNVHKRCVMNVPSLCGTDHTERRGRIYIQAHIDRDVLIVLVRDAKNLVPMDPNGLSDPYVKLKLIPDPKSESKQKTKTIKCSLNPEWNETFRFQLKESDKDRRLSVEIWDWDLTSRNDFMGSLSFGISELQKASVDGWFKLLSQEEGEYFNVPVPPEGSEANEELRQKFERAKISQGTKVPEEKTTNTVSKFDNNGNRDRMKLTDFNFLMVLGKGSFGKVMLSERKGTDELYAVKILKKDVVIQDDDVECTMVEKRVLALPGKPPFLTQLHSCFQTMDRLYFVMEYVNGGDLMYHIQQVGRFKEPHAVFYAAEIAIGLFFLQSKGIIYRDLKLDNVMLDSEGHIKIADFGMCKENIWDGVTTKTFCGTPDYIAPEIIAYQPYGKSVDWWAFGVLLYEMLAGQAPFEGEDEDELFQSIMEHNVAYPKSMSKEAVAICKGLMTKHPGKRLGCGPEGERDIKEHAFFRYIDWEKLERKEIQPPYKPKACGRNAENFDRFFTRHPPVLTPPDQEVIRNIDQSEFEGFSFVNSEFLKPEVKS

## CCCCCCCCCCCCCC(=O)O[C@@H]1[C@@H](C)[C@@]2(O)[C@@H](C=C(CO)C[C@]3(O)C(=O)C(C)=C[C@@H]23)[C@@H]2C(C)(C)[C@]12OC(C)=O [PMA, phorbol myristic acetate]
PKC isoenzyme ε
  Localization after stimulation (To): perinucleus
[1]
  Localization of C1-GFP fusion protein in response to PMA: membrane bound
PKC isoenzyme β
  Localization after stimulation (To): nucleus
PKC isoenzyme α
  Localization after stimulation (To): perinuclear membrane
PKC isoenzyme βII
  Localization after stimulation (To): filamentous structures
PKC isoenzyme η
  Localization after stimulation (To): no change
PKC isoenzyme ζ
  Localization after stimulation (To): no change
PKC isoenzyme δ
  Localization after stimulation (To): cytoskeletal elements
